Columns and labels:
Cox-2 mRNA [1] = assay: Cox-2 mRNA in isolated spinal cord slice in vitro; format: cell-based, rat; conditions: 10 ng/ml; after three hours
Experimental: Two mechanisms may contribute to central Cox-2 induction in response to peripheral inflammation: 1) sensory inflow from nerve fibers innervating the inflamed hindpaw or 2) circulating pro-inflammatory cytokines. To determine whether primary sensory neuron activity increases central Cox-2, an isolated adult rat spinal cord slice preparation with an attached dorsal root was analyzed (FIG. 5A). To prepare this spinal cord slice, the lumbar spinal cord from an adult rat under urethane anesthesia was removed and immersed in cold Kreb's solution. A 700-μm-thick transverse slice with attached L4 dorsal root (15-20 mm) was prepared and perfused with Kreb's solution saturated with 95% O2 and 5% CO2 at 36-37° C. (Baba et al., J Neurosci 19:859, 1999). The L4 dorsal root was electrically stimulated for 30 minutes using a suction electrode at 20 μA (0.05 ms, 50 Hz) for Aβ-fibers, 100 μA (0.05 ms, 50 Hz) for […] 1000 μA (0.5 ms, 50 Hz) for C-fibers. The slices were perfused with Kreb's solution for two hours before electrical stimulation, and for three hours after stimulation.

Cox-2 mRNA [2] = assay: Cox-2 mRNA induction by IL-1β in primary DRG neuron cultures; format: cell-based, rat; conditions: 1 or 10 ng/ml
Experimental: (§1) To determine whether IL-1β induces central Cox-2, rats were subjected to intravenous or intrathecal administration of this cytokine, and Cox-2 mRNA levels in the lumbar spinal cord were assessed five hours later. […] IL-1β also induces Cox-2 expression in dorsal root ganglion neurons (“DRG”), which are primary sensory neurons, both in vivo after intrathecal IL-1β administration and in vitro in primary neuronal cultures. […] For this analysis, Cox-2 mRNA levels were monitored using an RNase protection assay, and protein expression was visualized by immunohistochemistry, as described herein (FIG. 10).
To measure the contribution of p38, ERK, and NFκ-B to IL-1β-mediated induction of Cox-2 mRNA and protein levels, specific inhibitors for each of these factors were used. p38 and ERK inhibitors each decreased the induction by IL-1β of Cox-2 mRNA in the primary DRG neuron cultures by 30% (FIG. 10).

Cox-2 mRNA [3] = assay: Cox-2 mRNA in spinal cord and DRG after IL-1β administration in vivo; parameters: species or system rat; conditions: for upregulation of Cox-2 mRNA in the spinal cord: five hours later
Experimental: as §1

PGE2 = assay: Central PGE2 levels after intrathecal IL-1β; format: in vivo, rat; conditions: intrathecal 5 ng
Experimental: To visualize the induction of Cox-2 protein in dorsal horns after peripheral inflammation, immunohistochemistry was performed on transverse spinal cord sections (20 μm) using a Cox-2 antibody (Santa Cruz) and a neuronal marker, the NeuN antibody (Chemicon), as described previously (Amay et al., Mol. Cell Neurosci. 15:331-342, 2000). In situ hybridization was performed using a digoxygenin-labeled riboprobe to visualize the induction of Cox-2 mRNA (Mannion et al., Proc. Natl. Acad. Sci. U. S. A. 96:9385, 1999). Low basal levels of Cox-2 mRNA and protein were present in dorsal horn neurons with a substantial upregulation six and 12 hours post-inflammation (FIGS. 2A-2D and 3). To determine whether this induction of Cox-2 was correlated with an increase in PGE2 levels, a 100-200 μl sample of cerebrospinal fluid was withdrawn from the cisterna magna of anaesthetized rats using a 27 G needle, and PGE2 levels were analyzed using a PGE2 enzyme-immunoassay according to the manufacturer's protocol (Amersham Pharmacia Biotech). […]
To determine whether IL-1β induces central Cox-2, rats were subjected to intravenous or intrathecal administration of this cytokine, and Cox-2 mRNA levels in the lumbar spinal cord were assessed five hours later. […]

p38 and ERK = assay: MAP kinase phosphorylation in primary DRG neuron cultures; format: cell-based, rat; conditions: 10 ng/ml; 30 minutes
Experimental: To investigate the intracellular signaling pathway that leads to the increase in Cox-2 mRNA in the DRG neurons following treatment with IL-1β, the activation of the NFκ-B transcription factor and members of the MAP kinase family in primary DRG neurons was studied. […] Phosphorylated p38 and ERK were visualized by standard Western blot analysis and immunohistochemistry 30 minutes after administration of 10 ng/ml IL-1β to the culture medium (FIG. 12).
After CFA-induced inflammation, NGF is produced in the inflamed paw tissue and is retrogradely transported to the cell body of DRG neurons. NGF is critical for gene expression in DRG neurons and plays a major role in inflammatory pain (Lindsay et al., Nature 337: 362-364, 1989; and Woolf et al., Neuroscience 62:327-331, 1994). […] To determine whether NGF is required for the inflammation-induced activation of p38 and upregulation of VR1, NGF antiserum (i.p., 5 μl/g body weight, 84 mg/ml) was injected to neutralize endogenous NGF. […] Intrathecal injection of NGF (2 μg in 10 μl, twice a day for three days, Boeringer) increased both p-p38 levels and VR1 levels in DRG neurons. […] To test whether NGF acts via p38 to upregulate VR1, the p38 inhibitor SB203580 (1 μg) was co-administrated with NGF (twice a day for three days).

IL-1β: cytokine administered intravenously, intrathecally or to cultures
Cox-2 mRNA expression in the spinal cord in vitro (Cox-2 mRNA [1]): increased
Cox-2 mRNA and protein levels in cultured DRG neurons (Cox-2 mRNA [2]): increased significantly
upregulation of Cox-2 mRNA in the spinal cord (Cox-2 mRNA [3]; intrathecal 5 ng): 20 fold
upregulation of Cox-2 mRNA in the spinal cord (Cox-2 mRNA [3]; intrathecal 50 ng): 30 fold
Cox-2 mRNA levels in rat lumbar DRG neurons (Cox-2 mRNA [3]; intrathecal 1 and 10 ng, four hours after treatment): substantially upregulated
upregulation of Cox-2 mRNA in the spinal cord (Cox-2 mRNA [3]; intravenous 1 μg): four
upregulation of central PGE2 levels (PGE2): 50 fold
central PGE2 levels (PGE2; p<0.005, n=6): 1204 ± 360 pg/mL
phosphorylation of p38 and ERK in DRG cell cultures (p38 and ERK): lead to phosphorylation of p38 and ERK

Reference: patent US20080026003A1, “Methods for inhibiting pain” (The General Hospital Corporation, priority 2000, published 2008)
